According to patent US20170216252A1, “ANTI-BACTERIAL PYRUVATE KINASE MODULATOR COMPOUNDS, COMPOSITIONS, USES AND METHODS” (SIMON FRASER UNIVERSITY, priority 2014, published 2017):
Converted amounts (≈) assume the structure as drawn. Where two headings read alike, the source gives them in different places.

What was measured:
[1] = molecular target: T1, MRSA PK (Staphylococcus aureus, UniProt Q6GG09); assay: MRSA PK activity, continuous LDH-coupled assay; assay type: biochemical, S. aureus (MRSA strain Sanger 252); settings: for inhibition at 10 µM: read-out: % inhibition at the highest concentration tested (IC50)
T1 construct: His tag (pET-28a(+) vector) (N); made in house; host or cells: E. coli BL-21 (DE3)
In short: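 Purified His-tagged MRSA PK (15 nM, E. coli-expressed) started reactions run up to 5 min at 30 °C. Activity was followed continuously by LDH-coupled NADH oxidation at 340 nm, with DMSO ≤1%. IC50 came from four-parameter variable-slope fits.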

[2] = system: S. aureus ATCC 29213; assay: In vitro susceptibility, broth microdilution MIC; assay type: cell-based, Staphylococcus aureus
In short: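 The MIC against S. aureus 29213 was determined by CLSI 2-fold serial broth microdilution in Mueller Hinton broth. Plates were incubated for 18–24 h at 37 °C and read at OD600 with background subtracted. The MIC was the lowest concentration giving complete growth inhibition versus compound-free wells.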

[3] = Staphylococcus aureus, ATCC29213, Tables 1-6 and text, minimum concentration to give >98% inhibition of growth, read-out: MIC
[4] = Tables 1-6, 2 mM ADP, 10 mM PEP, 15 nM PK, read-out: IC50
[5] = Staphylococcus aureus, ATCC29213, Table 8, tested at least in duplicate, differing values all given, read-out: MIC
[6] = Table 8, tested at least in duplicate, differing values all given

T1 sequence (Q6GG09 whole entry): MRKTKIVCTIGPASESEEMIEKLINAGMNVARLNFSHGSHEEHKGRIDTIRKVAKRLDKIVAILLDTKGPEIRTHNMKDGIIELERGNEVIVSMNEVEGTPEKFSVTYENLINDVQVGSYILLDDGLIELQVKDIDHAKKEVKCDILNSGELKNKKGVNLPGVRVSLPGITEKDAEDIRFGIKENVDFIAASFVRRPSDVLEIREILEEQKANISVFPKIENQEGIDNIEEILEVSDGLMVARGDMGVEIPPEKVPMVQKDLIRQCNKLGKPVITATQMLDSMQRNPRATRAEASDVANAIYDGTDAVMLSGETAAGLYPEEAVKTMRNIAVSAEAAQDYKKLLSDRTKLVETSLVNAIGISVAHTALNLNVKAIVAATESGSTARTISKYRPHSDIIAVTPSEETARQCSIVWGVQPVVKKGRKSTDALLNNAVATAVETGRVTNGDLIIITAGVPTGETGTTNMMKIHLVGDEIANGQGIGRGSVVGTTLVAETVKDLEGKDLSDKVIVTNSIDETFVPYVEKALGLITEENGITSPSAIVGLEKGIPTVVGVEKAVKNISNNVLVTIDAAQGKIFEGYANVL

| Structure (SMILES) | IC50 [1] [nM] | MIC [2, 3] [µg/mL] | MIC [2, 5] [µg/mL] | other results |
| --- | --- | --- | --- | --- |
| O=C(Nc1nc2ccc(Br)cc2[nH]1)c1cc2ccc(Br)cc2[nH]1 [Compound 80, 6-Bromo-N-(6-bromo-1H-benzo[d]imidazol-2-yl)-1H-indole-2-carboxamide] | 1.5 | > 64 |  |  |
| O=C(Nc1nc2cc(Br)ccc2s1)c1cc(Br)ccc1O [Compound 50, 5-Bromo-N-(5-bromobenzo[d]thiazol-2-yl)-2-hydroxybenzamide] |  | > 64 |  | inhibition at 10 µM [1]: 60% |
| O=C(Nc1nc2ccc(Br)cc2s1)c1cc(Br)ccc1O [Compound 51, 5-Bromo-N-(6-bromobenzo[d]thiazol-2-yl)-2-hydroxybenzamide] |  | > 64 |  | IC50 [1, 4]: 3 nM |
| COC(=O)c1c(C(=O)Nc2ccc(Cl)cc2)[nH]c2cc(Br)ccc12 [Compound 130, Methyl 6-bromo-2-((4-chlorophenyl)carbamoyl)-1H-indole-3-carboxylate] | < 50 |  | > 64 |  |
| O=C(Nc1ccc(Cl)nc1)c1[nH]c2cc(Br)ccc2c1C(=O)O [Compound 139, 6-Bromo-2-((6-chloropyridin-3-yl)carbamoyl)-1H-indole-3-carboxylic acid] | 50 to 100 |  | > 64 |  |
| Brc1ccc2[nH]c(-c3ccc(-c4cc5ccc(Br)cc5[nH]4)s3)cc2c1 [Compound 47, 6-Bromo-2-(5-(5-bromo-1H-indol-2-yl)thiophen-2-yl)-1H-indole] |  | > 64 |  | inhibition at 10 µM [1]: 52% |
| CC(=O)c1c(CCc2ccccc2)[nH]c2cc(Br)ccc12 [Compound 39a, 1-(6-bromo-2-phenethyl-1H-indol-3-yl)ethanone] | 608 | > 64 |  |  |
| Cn1c(C(=O)Nc2nc3ccc(Br)cc3s2)cc2ccccc21 [Compound 69, N-(6-Bromobenzo[d]thiazol-2-yl)-1-methyl-1H-indole-2-carboxamide] |  | > 64 |  | inhibition at 10 µM [1]: 61% |
| COC(=O)c1c(-c2cc3cc(Br)c(Br)cc3[nH]2)[nH]c2cc(Br)c(Br)cc12 [Compound 39d] | 2.1 | 4 (≈ 6.6 µM) |  |  |
| O=C(Nc1nc2cc(Br)ccc2s1)c1cc2cc(Br)ccc2[nH]1 [Compound 77, 5-Bromo-N-(5-bromobenzo[d]thiazol-2-yl)-1H-indole-2-carboxamide] | 8.2 | > 64 |  |  |
| O=C(O)c1c(/C=C/c2ccc(Cl)nc2)[nH]c2cc(Br)ccc12 [Compound 152, (E)-6-Bromo-2-(2-(6-chloropyridin-3-yl)vinyl)-1H-indole-3-carboxylic acid] | > 1000 |  | 64 (≈ 169 µM) |  |
| Brc1ccc2cc(/C=C/c3ccc4ccccc4n3)[nH]c2c1 [Compound 101, (E)-2-(2-(6-bromo-1H-indol-2-yl)vinyl)quinoline] | > 1000 | > 64 | > 64 |  |
| Brc1ccc2cc(CSCc3ccccc3)[nH]c2c1 [Compound 149, 2-((Benzylthio)methyl)-6-bromo-1H-indole] | > 1000 |  | > 64 |  |
| Clc1ccc(CCc2nc3ccc(Br)cc3[nH]2)cc1 [Compound 154, 6-bromo-2-(4-chlorophenethyl)-1H-benzo[d]imidazole] | > 1000 |  | 16 (≈ 47.7 µM) | MIC [2, 6]: 32 µg/mL (≈ 95.3 µM) |
| Cc1c(/C=C/c2ccc(Cl)cc2)[nH]c2cc(Br)ccc12 [Compound 160, (E)-6-bromo-2-(4-chlorostyryl)-3-methyl-1H-indole] | < 50 |  | > 64 |  |
| Clc1cnc(/C=C/c2cc3ccc(Br)cc3[nH]2)cn1 [Compound 118, (E)-6-Bromo-2-(2-(5-chloropyrazin-2-yl)vinyl)-1H-indole] | 50 to 100 |  | 16 (≈ 47.8 µM) |  |
| Brc1ccc2cc(/C=C/c3cc(-c4ccccc4)on3)[nH]c2c1 [Compound 105, (E)-3-(2-(6-Bromo-1H-indol-2-yl)vinyl)-5-phenylisoxazole] | > 100000 |  | > 64 |  |

| Structure (SMILES) | IC50 [1] [nM] | MIC [2, 3] [µg/mL] | MIC [2, 5] [µg/mL] | other results |
| --- | --- | --- | --- | --- |
| Cc1cnc(/C=C/c2cc3ccc(Br)cc3[nH]2)cn1 [Compound 109, (E)-6-Bromo-2-(2-(5-methylpyrazin-2-yl)vinyl)-1H-indole] | > 1000 |  | > 64 |  |
| O=C(c1c(C#Cc2ncccn2)[nH]c2cc(Br)ccc12)C(F)(F)F [Compound 169, 1-(6-Bromo-2-(pyrimidin-2-ylethynyl)-1H-indol-3-yl)-2,2,2-trifluoroethanone] | > 100000 |  | > 64 |  |
| O=C(Nc1ccc(Cl)cc1)c1cc2ccc(Br)cc2[nH]1 [Compound 128, 6-bromo-N-(4-chlorophenyl)-1H-indole-2-carboxamide] | 17 |  | > 64 |  |
| COc1ccc(NC(=O)c2[nH]c3cc(Br)ccc3c2C(=O)O)cc1 [Compound 134, 6-Bromo-2-((4-methoxyphenyl)carbamoyl)-1H-indole-3-carboxylic acid] | < 50 |  | 64 (≈ 164 µM) |  |
| Fc1cc2cc(/C=C/c3ccc(Cl)cc3)[nH]c2cc1Br [Compound 161, (E)-6-Bromo-2-(4-chlorostyryl)-5-fluoro-1H-indole] | < 50 |  | > 64 |  |
| COC(=O)c1c(NCc2ccc(Cl)cc2)[nH]c2cc(Br)ccc12 [Compound 165, Methyl 6-bromo-2-(4-chlorobenzylamino)-1H-indole-3-carboxylate] | > 1000 |  | 4 (≈ 10.2 µM) |  |
| O=C(O)c1cc(Br)cc2[nH]c(CCc3ccc(Cl)cc3)cc12 [Compound 159, 6-bromo-2-(4-chlorophenethyl)-1H-indole-4-carboxylic acid] | 100 to 1000 |  | 64 (≈ 169 µM) |  |
| COc1ccc(NC(=O)c2[nH]c3cc(Br)ccc3c2C(=O)O)cn1 [Compound 136, 6-Bromo-2-((6-methoxypyridin-3-yl)carbamoyl)-1H-indole-3-carboxylic acid] | 100 to 1000 |  | > 64 |  |
| Clc1cc(Cl)cc(/C=C/c2cc3ccc(Br)cc3[nH]2)c1 [Compound 95, (E)-6-Bromo-2-(3,5-dichlorostyryl)-1H-indole] | < 50 |  | 7.1 (≈ 19.3 µM) | MIC [2, 6]: 8 µg/mL (≈ 21.8 µM) |
| Brc1ccc2[nH]c(-c3cc4cc(Br)c(Br)cc4[nH]3)cc2c1 [Compound 10m, 5,5′,6-Tribromo-1H,1′H-2,2′-biindole] |  | 1 (≈ 2.13 µM) |  | IC50 [1, 4]: 1.6 nM |
| O=C(Nc1ccc(Br)cc1)c1[nH]c2cc(Br)ccc2c1C(=O)O [Compound 132, 6-Bromo-2-((4-bromophenyl)carbamoyl)-1H-indole-3-carboxylic acid] | < 50 |  | 16 (≈ 36.5 µM) |  |
| O=C(Nc1nc2ccc(Br)cc2s1)c1cc(Br)cc(Br)c1O [Compound 85, 3,5-dibromo-N-(6-bromobenzo[d]thiazol-2-3/1)-2-hydroxybenzamide] | 4.1 | 1 (≈ 1.97 µM) |  |  |
| Fc1ccc(/C=C/c2cc3ccc(Br)cc3[nH]2)cc1 [Compound 103, (E)-6-Bromo-2-(4-fluorostyryl)-1H-indole] | > 1000 |  | > 64 |  |
| O=[N+]([O-])c1cc(/C=C/c2cc3ccc(Br)cc3[nH]2)ccc1Cl [Compound 97, (E)-6-Bromo-2-(4-chloro-3-nitrostyryl)-1H-indole] |  |  | > 64 | EC50 [1]: 8.6 nM |
| CC(=O)c1c(/C=C/c2ccccc2)[nH]c2cc(Br)ccc12 [Compound 38a, (E)-1-(6-bromo-2-styryl-1H-indol-3-yl)ethanone] | > 20000 | > 64 |  |  |
| O=C(c1c(-c2cc3ccccc3[nH]2)[nH]c2cc(Br)ccc12)C(F)(F)F [Compound 177, 1-(6-bromo-1H,1′H-[2,2′-biindol]-3-yl)-2,2,2-trifluoroethan-1-one] | > 1000 |  | 2 (≈ 4.91 µM) | MIC [2, 6]: 1 µg/mL (≈ 2.46 µM) |
